Assay results: the supplement of paper PMC6045584
± gives the standard deviation of the averaged measurements.

Assays:
[1] = compound: T1, C=CC(=O)Nc1cc2c(Nc3ccc(F)c(Cl)c3)ncnc2cc1OCCCN1CCOCC1 [CANERTINIB]; assay: surviving fraction relative to DMSO-only wells; higher = less growth inhibition; conditions: exposure time: 5 days
Outline: (§1)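 Viability values are CellTiter-Glo luminescence readings, given as surviving fraction against the median of DMSO-only wells. The readings were taken after 10 minutes at room temperature, following five days of continuous exposure to inhibitors at 0.5, 1, 5, 10, 50, 100, 500 and 1000 nM that began 24 hours after log-phase tumour cell lines were seeded at 250–500 cells per well in 384-well plates. Every line was screened three times and kept only if replicate Pearson r >0.7 and median Z' >0.3.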

[2] = compound: T2, CC1(C)CC(=O)c2c(C(F)(F)F)nn(-c3ccc(C(N)=O)c(N[C@H]4CC[C@H](OC(=O)CN)CC4)c3)c2C1 [SNX-5422]; assay: as above; conditions: exposure time: 5 days
Outline: as §1

[3] = compound: T3, CCCCCCCCCCCCCCCC(=O)Nc1ccn([C@@H]2O[C@H](CO)[C@@H](O)[C@@H]2C#N)c(=O)n1 [SAPACITABINE]; assay: as above; conditions: exposure time: 5 days
Outline: as §1

[4] = compound: T4, CC[C@@H]1C(=O)N(C)c2cnc(Nc3ccc(C(=O)NC4CCN(C)CC4)cc3OC)nc2N1C1CCCC1 [BI-2536]; assay: as above; conditions: exposure time: 5 days
Outline: as §1

[5] = compound: T5, CN(C)C/C=C/C(=O)Nc1cc2c(Nc3ccc(F)c(Cl)c3)ncnc2cc1O[C@H]1CCOC1 [AFATINIB]; assay: as above; conditions: exposure time: 5 days
Outline: as §1

[6] = compound: T6, CNC(=O)c1ccc(N2C(=S)N(c3ccc(C#N)c(C(F)(F)F)c3)C(=O)C2(C)C)cc1F [MDV3100]; assay: as above; conditions: exposure time: 5 days
Outline: as §1

[7] = compound: Cn1cc(C2=Nc3cc(NC(=O)C(N)C4CCCCC4)cc4c3C2=CNNC4=O)cn1; assay: as above; conditions: exposure time: 5 days
Outline: as §1

[8] = compound: T7, Nc1nc2[nH]cnc2c(=S)[nH]1 [TIOGUANINE]; assay: as above; conditions: exposure time: 5 days
Outline: as §1

[9] = compound: T1, CANERTINIB; assay: area under dose-response curve of surviving fraction (unscaled, Aref=0) (surviving fraction x log10(nM)); higher = more resistant; conditions: exposure time: 5 days; dose range 0.5-1000 nM
Outline: (§2)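 Tumour cell lines in 384-well plates were exposed for five days to eight inhibitor concentrations from 0.5 to 1000 nM. Viability was read by CellTiter-Glo luminescence, normalised to DMSO-only wells, in three screens per line. Dose-response survival curves were fitted to surviving fractions by 3-parameter logistic regression in the drc R package. Area under the curve is the unscaled activity area (Aref = 0) over log10 dose.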

[10] = compound: T2, SNX-5422; assay: as above; conditions: exposure time: 5 days; dose range 0.5-1000 nM
Outline: as §2

[11] = compound: T3, SAPACITABINE; assay: as above; conditions: exposure time: 5 days; dose range 0.5-1000 nM
Outline: as §2

[12] = compound: T4, BI-2536; assay: as above; conditions: exposure time: 5 days; dose range 0.5-1000 nM
Outline: as §2

[13] = compound: T5, AFATINIB; assay: as above; conditions: exposure time: 5 days; dose range 0.5-1000 nM
Outline: as §2

[14] = compound: Cn1cc(C2=Nc3cc(NC(=O)C(N)C4CCCCC4)cc4c3C2=CNNC4=O)cn1; assay: as above; conditions: exposure time: 5 days; dose range 0.5-1000 nM
Outline: as §2

[15] = compound: T7, TIOGUANINE; assay: as above; conditions: exposure time: 5 days; dose range 0.5-1000 nM
Outline: as §2

[16] = compound: T6, MDV3100; assay: as above; conditions: exposure time: 5 days; dose range 0.5-1000 nM
Outline: as §2

VP229 BREAST gave a surviving fraction ([1]; 0.5 nM) of 0.724 ± 0.051, a surviving fraction ([1]; 1 nM) of 0.682 ± 0.085 and a surviving fraction ([1]; 5 nM) of 0.638 ± 0.11. For the same test system, the surviving fraction ([1]; 10 nM) was 0.514 ± 0.061, the surviving fraction ([1]; 50 nM) was 0.467 ± 0.021 and the surviving fraction ([1]; 100 nM) was 0.42 ± 0.033. For the same test system, the surviving fraction ([1]; 500 nM) was 0.201 ± 0.019, the surviving fraction ([1]; 1000 nM) was 0.154 ± 0.044 and the surviving fraction ([2]; 0.5 nM) was 1.286 ± 0.012. For the same test system, the surviving fraction ([2]; 1 nM) was 1.15 ± 0.17, the surviving fraction ([2]; 5 nM) was 1.12 ± 0.08 and the surviving fraction ([2]; 10 nM) was 1.03 ± 0.16. The surviving fraction ([2]; 50 nM) was 0.612 ± 0.034, the surviving fraction ([2]; 100 nM) was 0.628 ± 0.1 and the surviving fraction ([2]; 500 nM) was 0.0873 ± 0.019. For the same test system, the surviving fraction ([2]; 1000 nM) was 0.088 ± 0.011, the surviving fraction ([3]; 0.5 nM) was 0.763 ± 0.17 and the surviving fraction ([3]; 1 nM) was 0.668 ± 0.054. For the same test system, the surviving fraction ([3]; 5 nM) was 0.686 ± 0.11, the surviving fraction ([3]; 10 nM) was 0.643 ± 0.084 and the surviving fraction ([3]; 50 nM) was 1 ± 0.14. The surviving fraction ([3]; 100 nM) was 0.835 ± 0.12, the surviving fraction ([3]; 500 nM) was 0.69 ± 0.099 and the surviving fraction ([3]; 1000 nM) was 0.669 ± 0.083. For the same test system, the surviving fraction ([4]; 0.5 nM) was 0.94 ± 0.022, the surviving fraction ([4]; 1 nM) was 0.729 ± 0.081 and the surviving fraction ([4]; 5 nM) was 0.373 ± 0.093. It also gave a surviving fraction ([4]; 10 nM) of 0.234 ± 0.019, a surviving fraction ([4]; 50 nM) of 0.254 ± 0.042 and a surviving fraction ([4]; 100 nM) of 0.247 ± 0.019. The surviving fraction ([4]; 500 nM) was 0.242 ± 0.025, the surviving fraction ([4]; 1000 nM) was 0.19 ± 0.011 and the surviving fraction ([5]; 0.5 nM) was 1.1 ± 0.11. It also gave a surviving fraction ([5]; 1 nM) of 1.03 ± 0.13, a surviving fraction ([5]; 5 nM) of 0.645 ± 0.079 and a surviving fraction ([5]; 10 nM) of 0.586 ± 0.076. It also gave a surviving fraction ([5]; 50 nM) of 0.324 ± 0.011, a surviving fraction ([5]; 100 nM) of 0.273 ± 0.04 and a surviving fraction ([5]; 500 nM) of 0.272 ± 0.021. The surviving fraction ([5]; 1000 nM) was 0.165 ± 0.025, the surviving fraction ([6]; 0.5 nM) was 1.05 ± 0.052 and the surviving fraction ([6]; 1 nM) was 0.995 ± 0.089. It also gave a surviving fraction ([6]; 5 nM) of 0.878 ± 0.095, a surviving fraction ([6]; 10 nM) of 0.905 ± 0.13 and a surviving fraction ([6]; 50 nM) of 1 ± 0.12. For the same test system, the surviving fraction ([6]; 100 nM) was 0.994 ± 0.055, the surviving fraction ([6]; 500 nM) was 0.947 ± 0.07 and the surviving fraction ([6]; 1000 nM) was 0.806 ± 0.077. For the same test system, the surviving fraction ([7]; 0.5 nM) was 1.04 ± 0.11, the surviving fraction ([7]; 1 nM) was 1.04 ± 0.035 and the surviving fraction ([7]; 5 nM) was 1.02 ± 0.059. It also gave a surviving fraction ([7]; 10 nM) of 1.11 ± 0.17, a surviving fraction ([7]; 50 nM) of 1.06 ± 0.15 and a surviving fraction ([7]; 100 nM) of 1.01 ± 0.064. For the same test system, the surviving fraction ([7]; 500 nM) was 1.13 ± 0.13, the surviving fraction ([7]; 1000 nM) was 1.06 ± 0.15 and the surviving fraction ([8]; 0.5 nM) was 1.07 ± 0.089. The surviving fraction ([8]; 1 nM) was 1.06 ± 0.053, the surviving fraction ([8]; 5 nM) was 1.03 ± 0.031 and the surviving fraction ([8]; 10 nM) was 1.04 ± 0.057. For the same test system, the surviving fraction ([8]; 50 nM) was 1.11 ± 0.14, the surviving fraction ([8]; 100 nM) was 1.1 ± 0.012 and the surviving fraction ([8]; 500 nM) was 1.14 ± 0.17. The surviving fraction ([8]; 1000 nM) was 1.08 ± 0.15, the “area under dose-response curve” value [9] was 1.58 and the “area under dose-response curve” value [10] was 2.34. The “area under dose-response curve” value [11] was 2.46, the “area under dose-response curve” value [12] was 1.18 and the “area under dose-response curve” value [13] was 1.7. The “area under dose-response curve” value [14] was 3.5 and the “area under dose-response curve” value [15] was 3.57.

A549 LUNG gave a surviving fraction ([1]; 0.5 nM) of 0.915 ± 0.018, a surviving fraction ([1]; 1 nM) of 0.909 ± 0.018 and a surviving fraction ([1]; 5 nM) of 0.93 ± 0.014. For the same test system, the surviving fraction ([1]; 10 nM) was 0.873 ± 0.01, the surviving fraction ([1]; 50 nM) was 0.955 ± 0.046 and the surviving fraction ([1]; 100 nM) was 0.965 ± 0.026. The surviving fraction ([1]; 500 nM) was 0.9707 ± 0.0042, the surviving fraction ([1]; 1000 nM) was 0.948 ± 0.05 and the surviving fraction ([2]; 0.5 nM) was 1 ± 0.046. The surviving fraction ([2]; 1 nM) was 1.01 ± 0.053, the surviving fraction ([2]; 5 nM) was 1.01 ± 0.043 and the surviving fraction ([2]; 10 nM) was 0.99 ± 0.045. It also gave a surviving fraction ([2]; 50 nM) of 0.895 ± 0.057, a surviving fraction ([2]; 100 nM) of 0.349 ± 0.046 and a surviving fraction ([2]; 500 nM) of 0.0613 ± 0.0031. It also gave a surviving fraction ([2]; 1000 nM) of 0.058 ± 0.0095, a surviving fraction ([3]; 0.5 nM) of 0.906 ± 0.026 and a surviving fraction ([3]; 1 nM) of 0.906 ± 0.023. The surviving fraction ([3]; 5 nM) was 0.908 ± 0.021, the surviving fraction ([3]; 10 nM) was 0.906 ± 0.013 and the surviving fraction ([3]; 50 nM) was 0.87 ± 0.022. It also gave a surviving fraction ([3]; 100 nM) of 0.666 ± 0.035, a surviving fraction ([3]; 500 nM) of 0.416 ± 0.001 and a surviving fraction ([3]; 1000 nM) of 0.308 ± 0.034. For the same test system, the surviving fraction ([4]; 0.5 nM) was 1.02 ± 0.056, the surviving fraction ([4]; 1 nM) was 1 ± 0.034 and the surviving fraction ([4]; 5 nM) was 0.48 ± 0.016. For the same test system, the surviving fraction ([4]; 10 nM) was 0.28 ± 0.0067, the surviving fraction ([4]; 50 nM) was 0.133 ± 0.0046 and the surviving fraction ([4]; 100 nM) was 0.0943 ± 0.0074. For the same test system, the surviving fraction ([4]; 500 nM) was 0.0457 ± 0.0071, the surviving fraction ([4]; 1000 nM) was 0.039 ± 0.003 and the surviving fraction ([5]; 0.5 nM) was 1.02 ± 0.068. The surviving fraction ([5]; 1 nM) was 1.02 ± 0.053, the surviving fraction ([5]; 5 nM) was 0.987 ± 0.05 and the surviving fraction ([5]; 10 nM) was 0.965 ± 0.056. The surviving fraction ([5]; 50 nM) was 1.03 ± 0.025, the surviving fraction ([5]; 100 nM) was 1.03 ± 0.019 and the surviving fraction ([5]; 500 nM) was 1.04 ± 0.05. For the same test system, the surviving fraction ([5]; 1000 nM) was 1.03 ± 0.034, the surviving fraction ([6]; 0.5 nM) was 0.971 ± 0.011 and the surviving fraction ([6]; 1 nM) was 0.941 ± 0.029. For the same test system, the surviving fraction ([6]; 5 nM) was 0.978 ± 0.011, the surviving fraction ([6]; 10 nM) was 0.934 ± 0.032 and the surviving fraction ([6]; 50 nM) was 1 ± 0.038. The surviving fraction ([6]; 100 nM) was 1.01 ± 0.015, the surviving fraction ([6]; 500 nM) was 1.01 ± 0.033 and the surviving fraction ([6]; 1000 nM) was 0.983 ± 0.04. It also gave a surviving fraction ([7]; 0.5 nM) of 1.04 ± 0.034, a surviving fraction ([7]; 1 nM) of 1.08 ± 0.082 and a surviving fraction ([7]; 5 nM) of 1.03 ± 0.021. It also gave a surviving fraction ([7]; 10 nM) of 1.03 ± 0.018, a surviving fraction ([7]; 50 nM) of 1.08 ± 0.048 and a surviving fraction ([7]; 100 nM) of 1.02 ± 0.033. For the same test system, the surviving fraction ([7]; 500 nM) was 1.06 ± 0.029, the surviving fraction ([7]; 1000 nM) was 1.01 ± 0.02 and the surviving fraction ([8]; 0.5 nM) was 0.946 ± 0.045. For the same test system, the surviving fraction ([8]; 1 nM) was 0.955 ± 0.025, the surviving fraction ([8]; 5 nM) was 0.96 ± 0.046 and the surviving fraction ([8]; 10 nM) was 0.952 ± 0.051. For the same test system, the surviving fraction ([8]; 50 nM) was 0.976 ± 0.045, the surviving fraction ([8]; 100 nM) was 0.999 ± 0.064 and the surviving fraction ([8]; 500 nM) was 1.01 ± 0.038. For the same test system, the surviving fraction ([8]; 1000 nM) was 0.973 ± 0.056, the “area under dose-response curve” value [9] was 3.08 and the “area under dose-response curve” value [10] was 2.28. The “area under dose-response curve” value [11] was 2.57, the “area under dose-response curve” value [12] was 1.16 and the “area under dose-response curve” value [13] was 3.35. For the same test system, the “area under dose-response curve” value [16] was 3.23 and the “area under dose-response curve” value [15] was 3.21.
